Where a SMILES comes first, the peptide text is derived from it. Where no end group is shown, it is not given here. The star is where a group is joined. 5FAM = O=C1OC2(c3ccc(O)cc3Oc3cc(O)ccc32)c2ccc(C(=O)*)cc21; Ahx = NCCCCCC(=O)O

Data set [1] has as its system primary human M2-resembling (MCSF + IL4 polarized) macrophages. The data set is described as follows: In vitro cytotoxicity (MTT), M2-resembling macrophages. The data set is classed as cell-based. The conditions noted are these: 15-minute incubation at 33 and 100 μmol/L DOX, washed, 48 hours, N = 3 wells. Here is the method:
Human peripheral blood mononuclear cells (PBMC) were purified from human blood buffy coat using Ficoll Paque Plus (GE Healthcare, catalog no. 17-1440-02) reagent and CD14^+ microbeads (MACS Miltenyi Biotec, catalog no. 130-050-201) as described previously ([42]). A total of 1.2 × 10^5 cells in 50 μL of RPMI1640 medium were seeded on an FBS-coated 96-well plate. To obtain optimal macrophage attachment and M2 resembling, 50 μL of IL4 (50 ng/mL, BioLegend, catalog no. 574002) and MCSF (50 ng/mL, BioLegend, catalog no. 574802) mixture was added to the wells. The medium was replenished by substituting half of the medium with fresh medium containing IL4 and MCSF every other day for 6 days. To obtain M1-resembling macrophages, monocytes were incubated with M-CSF (50 ng/mL) for 6 days, replenishing every other day with fresh medium containing MCSF and on day 6, 50 μL of MCSF, lipopolysaccharide (LPS, 100 ng/mL, Sigma-Aldrich, catalog no. L4391) and IFNγ (20 ng/mL, BioLegend, catalog no. 570202) was added and incubated overnight. […] After incubation, wells were washed, fresh medium added, and cells incubated for 48 hours at 37°C. […] Absorbance was read at 580 nm using a plate reader (Tecan Sunrise) and the corresponding Magellan 7 program. […] After that, cells were washed 2× with 200 μL of RB and read using BD Accuri 6 plus (BD Biosciences). […]

Data set [2] concerns orthotopic TNBC (4T1 cells). The data set is described as follows: OximUNO treatment of orthotopic TNBC. The data set is classed as in vivo, Balb/c mice. The protocol:
Two tumor models were used for treatment studies: the orthotopic TNBC model where 5 × 10^4 4T1 cells in 50 μL of PBS were injected subcutaneously into fourth mammary fat pad; and the experimental metastasis of TNBC model where 2 × 10^5 4T1-GFP cells in 100 μL of PBS were intravenously injected.
A total of 5 × 10^4 4T1 cells in 50 μL of PBS were subcutaneously injected into the fourth mammary fat pad of 8–12 weeks old female Balb/c mice. On day 7, mice were sorted into four groups by tumor volume measured using a digital caliper (Mitutoyo). Tumor volume was calculated on the basis of the formula (W^2 × L)/2, where W is the tumor's width and L is the tumor's length. […] Mouse bodyweight and tumor volumes were monitored every other day. […] CD206 was detected using rat anti-mouse CD206 (dilution 1/200), CD8 using rat anti-mouse CD8 (dilution 1/75 BioLegend, catalog no. 100701), FOXP3 using rat anti-mouse FOXP3 (dilution 1/75, BioLegend, catalog no. 126401) as primary antibodies, Alexa Fluor goat anti-rat 647 (dilution 1/300 for CD206 and 1/200 for CD8, FOXP3,) was used as a secondary antibody for all markers. […]
For H&E staining, 2-μm–thick sections were cut from paraffin-embedded blocks. […] Images were analyzed using the QuPath program (version 0.1.2; ref. [52]). […] Stained heart sections were also scanned using a slide scanner and analysed with the QuPath program. […]

For data set [3] the following is noted: cited from earlier work. The source says:
On the basis of these ante ...

For data set [4] the following is noted: same mice strain, sex, age; cited from earlier work.

`COc1cccc2c1C(=O)c1c(O)c3c(c(O)c1C2=O)C[C@@](O)(C(=O)CO)C[C@@H]3O[C@H]1C[C@H](N)[C@H](O)[C@H](C)O1` [DOX, doxorubicin]: the “toxicity (MTT cell viability)” value in data set [1] is on record as “only displayed toxicity in MCSF + IL4 polarized macrophages at 100 μmol/L”. In addition, the “CD206 expression in primary tumor” value in data set [2] (IF, compared with PBS) is reported as “upregulated CD206 expression”. For the same compound, in data set [2] (i.p., 2 mg/kg of DOX every other day, nine injections), the mouse bodyweight result is reported as “significant decrease in mouse bodyweight”.

With `C[C@H](NC(=O)CNC(=O)[C@@H]1CCCN1C(=O)[C@H](CO)NC(=O)[C@H](CS)NC(=O)CCCCCNC(=O)c1ccc2c(c1)C(=O)OC21c2ccc(O)cc2Oc2cc(O)ccc21)C(=O)N[C@@H](CCCCN)C(=O)O` [FAM-mUNO] ({5FAM-Ahx}-CSPGAK-OH), the “degradation of FAM coupled through an amide bond, in serum” value in data set [3] was “negligible degradation”.

In the case of CSPGAK-OH [mUNO], the “half-life, intraperitoneal versus intravenous administration” value in data set [4] is reported as “substantially longer half-life”.

Source of the values: PMC10010335, “Depletion of Mannose Receptor–Positive Tumor-associated Macrophages via a Peptide-targeted Star-shaped Polyglutamate Inhibits Breast Cancer Progression in Mice” (Cancer Research Communications, 2022).
